The values below come from patent publication US9302999B2, “Substituted triazoles as herbicides” (E. I. DU PONT DE NEMOURS AND COMPANY, priority 2012, dated 2016).

Holding throughout (type): in vivo
In experiment [1] the test system is Russian thistle (Salsola kali). The experiment in a line: Test C pre-/postemergence: Russian thistle. The note with it: Preemergence. The source says: Seeds of plant species selected from blackgrass (Alopecurus myosuroides), bromegrass, downy (downy bromegrass, Bromus tectorum), foxtail, green (green foxtail, Setaria viridis), ryegrass, Italian (Italian ryegrass, Lolium multiflorum), winter wheat (Triticum aestivum), wild oat (Avena fatua), galium (catchweed bedstraw, Galium aparine), bermudagrass (Cynodon dactylon), surinam grass (Brachiaria decumbens), cocklebur (common cocklebur, Xanthium strumarium), corn (Zea mays), large crabgrass (Digitaria sanguinalis), woolly cupgrass (Eriochloa villosa), foxtail, giant (giant foxtail, Setaria faberii), goosegrass (Eleusine indica), johnsongrass (Sorghum halepense), kochia (Kochia scoparia), lambsquarters (Chenopodium album), morningglory (Ipomoea coccinea), nightshade (eastern black nightshade, Solanum ptycanthum), nutsedge, yellow (yellow nutsedge, Cyperus esculentus), pigweed (Amaranthus retroflexus), ragweed (common ragweed, Ambrosia elation), soybean (Glycine max), common (oilseed) sunflower (Helianthus annuus), Russian thistle (Salsola kali) and velvetleaf (Abutilon theophrasti) were planted into a blend of loam soil and sand and treated preemergence with test chemicals formulated in a non-phytotoxic solvent mixture which included a surfactant.
At the same time, plants selected from these crop and weed species and also barley (winter barley, Hordeum vulgare), canarygrass (Phalaris minor), chickweed (common chickweed, Stellaria media) windgrass (Apera spica-venti) and deadnettle (henbit deadnettle, Lamium amplexicaule) were planted in pots containing Redi-Earth® planting medium (Scotts Company, 14111 Scottslawn Road, Marysville, Ohio 43041) comprising spaghnum peat moss, vermiculite, wetting agent and starter nutrients and treated with postemergence applications of test chemicals formulated in the same manner. Plants ranged in height from 2 to 18 cm (1- to 4-leaf stage) for postemergence treatments.
Treated plants and controls were maintained in a greenhouse for 13 to 15 days, after which time all species were compared to controls and visually evaluated. Plant response ratings, summarized in Table C, are based on a scale of 0 to 100 where 0 is no effect and 100 is complete control. A dash (-) response means no test result.

Experiment [2] relates to beggarticks (hairy beggarticks, Bidens pilosa). The experiment in a line: Test F pre-/postemergence: beggarticks. Put shortly: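 Visual response scores, 0 meaning no effect and 100 complete control, were assigned against untreated controls 14 to 21 days after treatment. Test chemicals in a surfactant-containing non-phytotoxic solvent were applied preemergence to seeded silt loam soil or postemergence to 2–18 cm plants in peat-based medium.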

The test system of experiment [3] is dayflower, VA (Virginia (VA) dayflower, Commelina virginica). The experiment in a line: Test F pre-/postemergence: dayflower, VA. An excerpt:
(§1) Seeds of plant species selected from corn (Zea mays), soybean (Glycine max), velvetleaf (Abutilon theophrasti), lambsquarters (Chenopodium album), poinsettia, wild (wild poinsettia, Euphorbia heterophylla), pigweed, palmer (palmer pigweed, Amaranthus palmeri), waterhemp (common waterhemp, Amaranthus rudis), surinam grass (Brachiaria decumbens), crabgrass, Brazil (Brazilian crabgrass, Digitaria horizontalis), panicum, fall (fall panicum Panicum dichotomiflorum), crabgrass, large (large crabgrass, Digitaria sanguinalis), foxtail, giant (giant foxtail, Setaria faberii), foxtail, green (green foxtail Setaria viridis), goosegrass (Eleusine indica), ragweed (common ragweed, Ambrosia elatior), barnyardgrass (Echinochloa crus-galli), sandbur (southern sandbur, Cenchrus echinatus), arrowleaf sida (Sida rhombifolia), ryegrass, Italian (Italian ryegrass, Lolium multiflorum), dayflower, VA (Virginia (VA) dayflower, Commelina virginica), field bindweed (Convolvulus arvensis), cocklebur (common cocklebur, Xanthium strumarium), morningglory (Ipomoea coccinea), nightshade (eastern black nightshade, Solanum ptycanthum), kochia (Kochia scoparia), nutsedge, yellow (yellow nutsedge, Cyperus esculentus), johnsongrass (Sorghum halepense), smartweed (ladysthumb smartweed, Polygonum persicaria), and beggarticks (hairy beggarticks, Bidens pilosa), were planted into a silt loam soil and treated preemergence with test chemicals formulated in a non-phytotoxic solvent mixture which included a surfactant. At the same time, plants selected from these crop and weed species and also pigweed (Amaranthus retroflexus), waterhemp_RES1 (ALS/Triazine resistant common waterhemp, Amaranthus rudis) and waterhemp_RES2 (ALS/HPPD resistant common waterhemp, Amaranthus rudis) were planted in pots containing a planting medium comprising spaghnum peat moss, vermiculite, wetting agent and starter nutrients treated with postemergence applications of some of the test chemicals formulated in the same manner. Plants ranged in height from 2 to 18 cm for postemergence treatments (1- to 4-leaf stage).
(§2) Treated plants and controls were maintained in a greenhouse for 14 to 21 days, after which time all species were compared to controls and visually evaluated. Plant response ratings, summarized in Table E, are based on a scale of 0 to 100 where 0 is no effect and 100 is complete control. A dash (-) response means no test result.

For experiment [4], the system named is foxtail, green (green foxtail Setaria viridis). The experiment in a line: Test F pre-/postemergence: foxtail, green. The note with it: Preemergence.
Source text: as §1, §2

The subject of experiment [5] is lambsquarters (Chenopodium album). The experiment in a line: Test F pre-/postemergence: lambsquarters. The note with it: Preemergence.
Source text: as §1, §2

The mark [6] stands for this setting: 31 g ai/ha, scale of 0 to 100, 0 is no effect, 100 is complete control.
[7] abbreviates: 62 g ai/ha, scale of 0 to 100, 0 is no effect, 100 is complete control.
[8] abbreviates: 125 g ai/ha, scale 0 to 100, 0 no effect, 100 complete control.
[9] abbreviates: 250 g ai/ha, scale 0 to 100, 0 no effect, 100 complete control.
[10] abbreviates: Postemergence, 250 g ai/ha, scale 0 to 100.
Setting [11] is: Postemergence, 16 g ai/ha, scale 0 to 100.
Where [12] appears, read: Postemergence, 31 g ai/ha, scale 0 to 100.
Where [13] appears, read: Postemergence, 62 g ai/ha, scale 0 to 100.
[14] abbreviates: Postemergence, 125 g ai/ha, scale 0 to 100.
Where [15] appears, read: Preemergence, 16 g ai/ha, scale 0 to 100, 0 no effect, 100 complete control.
The mark [16] stands for this setting: Preemergence, 31 g ai/ha, scale 0 to 100, 0 no effect, 100 complete control.
Where [17] appears, read: Preemergence, 62 g ai/ha, scale 0 to 100.
Where [18] appears, read: Preemergence, 125 g ai/ha, scale 0 to 100.
Where [19] appears, read: Preemergence, 250 g ai/ha, scale 0 to 100.
Where [20] appears, read: 16 g ai/ha, scale 0 to 100, 0 no effect, 100 complete control.
[21] abbreviates: 31 g ai/ha, scale 0 to 100, 0 no effect, 100 complete control.

On to `FC(F)(F)COc1nn(-c2ccc(C(F)(F)F)cc2)nc1Cc1ccnc(C(F)(F)F)c1` [Compound 14, 4-[[5-(2,2,2-trifluoroethoxy)-2-[4-(trifluoromethyl)phenyl]-2H-1,2,3-triazol-4-yl]methyl]-2-(trifluoromethyl)pyridine], for which the “Plant response rating, Russian Thistle” value in experiment [1] (setting [6]) is on record as 10; in experiment [1] (setting [7]), 90; in experiment [1] (setting [8]), 95; in experiment [1] (setting [9]), 95.

Take `COc1nn(-c2ccc(C(F)(F)F)cc2)nc1Cc1ccnc(C(F)(F)F)c1` [Compound 15, 4-[[5-methoxy-2-[4-(trifluoromethyl)phenyl]-2H-1,2,3-triazol-4-yl]methyl]-2-(trifluoromethyl)pyridine]: the “Plant response rating, Russian Thistle” value in experiment [1] (16 g ai/ha, scale 0 (no effect) to 100 (complete control)) came to 5; in experiment [1] (setting [6]), 50; in experiment [1] (setting [7]) it was 95; in experiment [1] (setting [8]), 100.

`Fc1ccc(-n2nc(Cc3ccnc(C(F)(F)F)c3)c(OC(F)F)n2)cc1` [Compound 25]: the “Plant response rating, Russian Thistle” value in experiment [1] (setting [6]) is on record as 0; in experiment [1] (setting [8]) it was 90; in experiment [1] (setting [9]) it was 90.

Turning to `FC(F)Oc1nn(-c2ccc(C(F)(F)F)cc2)nc1Cc1ccnc(C(F)(F)F)c1` [Compound 26], the “Plant response rating, Russian Thistle” value in experiment [1] (setting [7]) came out at 80; in experiment [1] (setting [8]), 95; in experiment [1] (setting [9]) it was 95.

As to `Cc1nn(-c2ccc(C(F)(F)F)cn2)nc1Cc1cccc(C(F)(F)F)c1` [Compound 106], the “Plant response rating, Russian Thistle” value in experiment [1] (setting [6]) worked out at 0; in experiment [1] (setting [7]) it was 5; in experiment [1] (setting [8]), 30; in experiment [1] (setting [9]), 100.

On to `Cc1nn(-c2ccc(C(F)(F)F)cc2)nc1Oc1ccnc(C(F)(F)F)c1` [Compound 120], for which the figures for the “Plant response rating, Russian Thistle” value in experiment [1] (setting [6]), in experiment [1] (setting [8]) and in experiment [1] (setting [9]) were 0, 85 and 100, respectively.

In the case of `COc1nn(-c2ccc(C(F)(F)F)cc2)nc1Cc1ccnc(C(F)F)c1` [Compound 138], the “Plant response rating, Russian Thistle” value worked out at 85 in experiment [1] (setting [6]), 90 in experiment [1] (setting [7]), 90 in experiment [1] (setting [8]) and 100 in experiment [1] (setting [9]).

Consider `CCc1nn(-c2ccc(C(F)(F)F)cc2)nc1Oc1ccnc(C(F)(F)F)c1` [Compound 169], for which the “Plant response rating, Beggarticks” value is 40 in experiment [2] (setting [10]); 25 in experiment [2] (setting [11]); 25 in experiment [2] (setting [12]); 25 in experiment [2] (setting [13]); 30 in experiment [2] (setting [14]); 0 in experiment [2] (setting [15]). Also, the “Plant response rating, Beggarticks” value is given as 0 in experiment [2] (setting [16]), 0 in experiment [2] (setting [17]), 5 in experiment [2] (setting [18]) and 5 in experiment [2] (setting [19]). For the same compound, the “Plant response rating, Dayflower, VA” value in experiment [3] (setting [10]) amounted to 20; in experiment [3] (setting [11]) it was 10; in experiment [3] (setting [12]), 10; in experiment [3] (setting [13]), 10; in experiment [3] (setting [14]) it was 10; in experiment [3] (setting [15]) it was 0. Besides, the “Plant response rating, Dayflower, VA” value was 5 in experiment [3] (setting [16]), 10 in experiment [3] (setting [17]), 65 in experiment [3] (setting [18]) and 75 in experiment [3] (setting [19]). The “Plant response rating, Foxtail, Green” value is listed as 98 in experiment [4] (setting [20]); 100 in experiment [4] (setting [21]); 100 in experiment [4] (62 g ai/ha, scale 0 to 100); 100 in experiment [4] (125 g ai/ha, scale 0 to 100); 100 in experiment [4] (250 g ai/ha, scale 0 to 100). In addition, the “Plant response rating, Lambsquarters” value is reported as 0 in experiment [5] (setting [20]); 30 in experiment [5] (setting [21]); 98 in experiment [5] (62 g ai/ha, scale 0 to 100); 98 in experiment [5] (125 g ai/ha, scale 0 to 100); 100 in experiment [5] (250 g ai/ha, scale 0 to 100).

On to `CCc1nn(-c2ccc(F)c(F)c2)nc1Oc1ccnc(C(F)(F)F)c1` [Compound 171], for which the “Plant response rating, Beggarticks” value in experiment [2] (setting [15]), in experiment [2] (setting [16]), in experiment [2] (setting [17]), in experiment [2] (setting [18]) and in experiment [2] (setting [19]) was 0 in each case. The “Plant response rating, Dayflower, VA” value in experiment [3] (setting [15]) came to 0; in experiment [3] (setting [16]), 0; in experiment [3] (setting [17]), 0; in experiment [3] (setting [18]) it was 30; in experiment [3] (setting [19]), 30. For the same compound, the “Plant response rating, Foxtail, Green” value was 20 in experiment [4] (setting [20]); 50 in experiment [4] (setting [21]); 95 in experiment [4] (62 g ai/ha, scale 0 to 100); 100 in experiment [4] (125 g ai/ha, scale 0 to 100); 100 in experiment [4] (250 g ai/ha, scale 0 to 100). Further, the “Plant response rating, Lambsquarters” value is given as 0 in experiment [5] (setting [20]); 0 in experiment [5] (setting [21]); 35 in experiment [5] (62 g ai/ha, scale 0 to 100); 65 in experiment [5] (125 g ai/ha, scale 0 to 100); 98 in experiment [5] (250 g ai/ha, scale 0 to 100).

Regarding `CCCc1nn(-c2ccc(F)c(F)c2)nc1Oc1ccnc(C(F)(F)F)c1` [Compound 172], the “Plant response rating, Beggarticks” value in experiment [2] (setting [10]) is 60; in experiment [2] (setting [12]), 40; in experiment [2] (setting [14]), 50; in experiment [2] (setting [16]) it was 15; in experiment [2] (setting [18]), 25; in experiment [2] (setting [19]), 25. Besides, the “Plant response rating, Dayflower, VA” value in experiment [3] (setting [10]) turned out to be 50; in experiment [3] (setting [12]), 20; in experiment [3] (setting [14]) it was 30; in experiment [3] (setting [16]) it was 40; in experiment [3] (setting [18]), 70; in experiment [3] (setting [19]), 90. Moreover, the “Plant response rating, Foxtail, Green” value is 75 in experiment [4] (setting [21]); 100 in experiment [4] (125 g ai/ha, scale 0 to 100); 100 in experiment [4] (250 g ai/ha, scale 0 to 100). For the same compound, the “Plant response rating, Lambsquarters” value in experiment [5] (setting [21]) was found to be 50; in experiment [5] (125 g ai/ha, scale 0 to 100) it was 98; in experiment [5] (250 g ai/ha, scale 0 to 100) it was 98.
